Results reported in patent US7326682B2 (priority 1998, dated 2008).
Where a name gives a salt, the structure may show the parent alone.

Test system: rat prostatic vas deferens

COC(=O)[C@@H]1[C@H]2C[C@H]3c4[nH]c5ccccc5c4CCN3C[C@@H]2CC[C@@H]1O [yohimbine, yohimbine hydrochloride]
effect on the evoked responses: no effect
